Converted amounts (≈) assume the structure as drawn. Read-outs that look alike come from different tables or passages of the source.
Columns and labels:
[1] = tested on: African green monkey kidney (Vero; ATCC # CCL81) cells; test: In vitro cytotoxicity (PrestoBlue cell viability), Vero; type: cell-based
MRSA ATCC 43300 = test: MIC against methicillin resistant Staphylococcus aureus (MRSA); conditions: read-out: MRSA MIC, ATCC 43300
M.tb Erdman = test: Broth microdilution MIC with Alamar blue endpoint (MABA) / OD600; type: cell-based, Mycobacterium tuberculosis
[2] = tested on: mitochondrial protein synthesis (COX-1/SDH-A ratio) in H9C2 rat heart myoblast cells; test: Mitochondrial protein synthesis inhibition (MitoBiogenesis in-cell ELISA, COX-1/SDH-A); type: cell-based; conditions: 120 h, five days, read-out: MPS IC50
[3] = tested on: M. Tuberculosis Erdman or H37Rv vs VERO or HepG2 cells; test: Selectivity Index (mammalian cell IC50 / bacterial MIC); set-up: species or system Mycobacterium tuberculosis
M.tb H37Rv = test: Broth microdilution MIC with Alamar blue endpoint (MABA) / OD600; type: cell-based, Mycobacterium tuberculosis
[4] = Liposome loading / encapsulation efficiency (General protocol); conditions: for Maximum encapsulated drug payload: 0.5 M AS; for maximum drug load: no buffer
MRSA 880 NR-49120 = test: MIC against methicillin resistant Staphylococcus aureus (MRSA); conditions: read-out: MRSA MIC, 880 NR-49120
MRSA ATCC BAA-1556 = test: as above
[5] = tested on: human hepatocyte/liver (HepG2; ATCC #HB8065) cells; test: In vitro cytotoxicity (PrestoBlue cell viability), HepG2; type: cell-based
[6] = Aqueous solubility (visually clear solutions); type: physicochemical; conditions: aqueous, 1 N HCl and/or water added
Experimental: Working stocks of the compounds were prepared as follows: to an aliquot of a compound (free base) in a powder form 1-1.5 equivalents of HCl in the form of 1 N aqueous solution was added, and the mixture was vortexed until homogeneity. To the resulting cake or syrup, water was added typically to the final 10 mg/ml, and complete dissolution was observed. In some instances, 0.95 equivalents of HCl were added to the free base form of the drug, and 20 mg/ml stock solution was prepared.
Aqueous solubility of the compounds of the present disclosure is illustrated by the following observations of obtaining visually clear solutions: […]

[7] = 1 N TEA-SOS, DL0 750-1500 g/mol PhL
[8] = read-out: MRSA MIC, ATCC BAA-1556
[9] = Chlorocebus sabaeus, Vero, 72 h; read-out: Cell viability IC50, VERO
[10] = Mycobacterium tuberculosis, ERDMAN; read-out: Mycobacterium tuberculosis MIC, Erdman
[11] = Mycobacterium tuberculosis, H37RV; as determined in Example 2; read-out: MIC (H37Rv)
[12] = Mycobacterium tuberculosis, H37RV; read-out: Mycobacterium tuberculosis MIC, H37Rv
[13] = Homo sapiens, HepG2, 72 h; read-out: Cell viability IC50, HepG2

| SMILES | MIC (MRSA ATCC 43300) | IC50 [2] | Selectivity Index (SI) Erd/HepG2 [3] | Selectivity Index (SI) Erd/VERO [3] | Maximum encapsulated drug payload ([4]; 0.5 mol% PEG) | Maximum encapsulated drug payload ([4]; 5 mol% PEG) | maximum drug load [4, 7] | MIC (MRSA 880 NR-49120) | MIC (MRSA ATCC BAA-1556; [8]) | IC50 [1, 9] | MIC (M.tb Erdman; [10]) | MIC (M.tb H37Rv; [11]) | MIC (M.tb H37Rv; [12]) | IC50 [5, 13] | further results |
| --- | --- | --- | --- | --- | --- | --- | --- | --- | --- | --- | --- | --- | --- | --- | --- |
| Cl.Cn1nnc(-c2ccc(-c3ccc(N4C[C@H](CN)OC4=O)cc3F)cn2)n1 [AKG-3] | 50 µg/mL | 0.115 µg/mL | 169.6 | 142.4 | 590 g/mol PhL | 600-606 g/mol PhL | 900-930 g/mol PhL | 50 µg/mL | 50 µg/mL |  |  |  |  |  | IC50 ([1]; Chlorocebus sabaeus, Vero, 72 h, read-out: Cell viability IC50, VERO): 17.8 µg/mL; MIC (M.tb Erdman; Mycobacterium tuberculosis, ERDMAN, read-out: Mycobacterium tuberculosis MIC, Erdman): 0.125 µg/mL; MIC (M.tb H37Rv; Mycobacterium tuberculosis, H37RV, read-out: MIC (H37Rv)): 0.06 µg/mL; MIC (M.tb H37Rv; Mycobacterium tuberculosis, H37RV, read-out: Mycobacterium tuberculosis MIC, H37Rv): 0.06 µg/mL; loading efficiency at or near the maximum drug load [4, 7]: at least 97.6%; Drug loading efficiency ([4]; PEG-DSG 0.5 mol%, 1 N TEA-SOS, DL0 500 g/mol PhL): 100.8; Drug loading efficiency ([4]; PEG-DSG 0.5 mol%, […] AS, DL0 250 g/mol PhL): 100.4; Drug loading efficiency ([4]; PEG-DSG 0.5 mol%, […] AS, DL0 500 g/mol PhL): 80.3; Drug loading efficiency ([4]; PEG-DSG 5 mol%, 1 N TEA-SOS, DL0 500 g/mol PhL): 107.4; MIC (MRSA ATCC BAA-1556; read-out: MRSA MIC): > 50 µg/mL; IC50 ([5]; Homo sapiens, HepG2, 72 h, read-out: Cell viability IC50, HepG2): 21.2 µg/mL |
| CN(C)CCn1nnc(-c2ccc(-c3ccc(N4C[C@H](CO)OC4=O)cc3F)cn2)n1 [AKG-16] | 1.85 µg/mL (≈ 4.33 µM) | 0.244 µg/mL (≈ 0.571 µM) |  |  | 668-675 g/mol PhL | 614-619 g/mol PhL | 938-951 g/mol PhL | 1.85 µg/mL (≈ 4.33 µM) | 1.85 µg/mL (≈ 4.33 µM) | 97 µg/mL (≈ 227 µM) | 0.25 µg/mL (≈ 0.585 µM) | 0.25 µg/mL (≈ 0.585 µM) | 0.25 µg/mL (≈ 0.585 µM) | 91 µg/mL (≈ 213 µM) | Concentration % (w/w) of free base (visually clear solution) [6]: 30.0 % (w/w) |
| Cl.NCCn1nnnc1-c1ccc(-c2ccc(N3C[C@H](CO)OC3=O)cc2F)cn1 [AKG-22] | 16.7 µg/mL | 1.18 µg/mL | 17.2 | 57.7 |  |  |  | 5.55 µg/mL | 1.85 to 5.55 µg/mL | 57.7 µg/mL | 1 µg/mL | 0.5 µg/mL | 0.5 µg/mL | 17.2 µg/mL |  |
